Assay results published in ChEMBL document CHEMBL1201861, “Genomics of Drug Sensitity in Cancer screening data, Wellcome Trust Sanger Institute”.
pIC50: −log10 of the molar value.

Assays:
Experiment in all cases: cells
Format in all cases: functional, cell-based
Settings in all cases: Homo sapiens
[1] = system: MG-63;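 further: growth inhibition of human MG-63 cells, read out with a cell viability assay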
Description: SANGER: Inhibition of human MG-63 cell growth in a cell viability assay.

[2] = system: CAL-33;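 further: growth inhibition of CAL-33 cells, read out with a cell viability assay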
Description: SANGER: Inhibition of human CAL-33 cell growth in a cell viability assay.

[3] = system: CAL-39;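 further: cell viability assay measuring growth inhibition of CAL-39 cells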
Description: SANGER: Inhibition of human CAL-39 cell growth in a cell viability assay.

[4] = system: NCI-H596;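 further: growth inhibition of NCI-H596 cells, read out with a cell viability assay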
Description: SANGER: Inhibition of human NCI-H596 cell growth in a cell viability assay.

[5] = system: NCI-H2347;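 further: growth inhibition of the cell line, read out with a cell viability assay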
Description: SANGER: Inhibition of human NCI-H2347 cell growth in a cell viability assay.

[6] = system: RPMI-2650
Description: SANGER: Inhibition of human RPMI-2650 cell growth in a cell viability assay.

[7] = system: EFM-19;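 further: growth inhibition of human EFM-19 cells, measured in a cell viability assay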
Description: SANGER: Inhibition of human EFM-19 cell growth in a cell viability assay.

[8] = system: YKG-1;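 further: cell growth inhibition, read out with a viability assay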
Description: SANGER: Inhibition of human YKG-1 cell growth in a cell viability assay.

[9] = system: HCT-116
Description: SANGER: Inhibition of human HCT-116 cell growth in a cell viability assay.

[10] = system: DK-MG;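 further: growth inhibition of DK-MG cells, read out with a cell viability assay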
Description: SANGER: Inhibition of human DK-MG cell growth in a cell viability assay.

[11] = system: EPLC-272H
Description: SANGER: Inhibition of human EPLC-272H cell growth in a cell viability assay.

[12] = system: SW780;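 further: growth inhibition of the cells, read out with a cell viability assay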
Description: SANGER: Inhibition of human SW780 cell growth in a cell viability assay.

[13] = system: HuO-3N1;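 further: cell viability readout used to measure how strongly compounds suppress proliferation of human HuO-3N1 cells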
Description: SANGER: Inhibition of human HuO-3N1 cell growth in a cell viability assay.

[14] = system: SJRH30;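 further: growth inhibition of human SJRH30 cells, read out with a cell viability assay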
Description: SANGER: Inhibition of human SJRH30 cell growth in a cell viability assay.

[15] = system: PA-1;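 further: IC50 for suppression of PA-1 cell proliferation, determined with a cell viability read-out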
Description: SANGER: Inhibition of human PA-1 cell growth in a cell viability assay.

[16] = system: T-24;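 further: growth inhibition of T-24 cells, read out with a cell viability assay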
Description: SANGER: Inhibition of human T-24 cell growth in a cell viability assay.

[17] = system: AN3-CA;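 further: growth inhibition of human AN3-CA cells measured by a cell viability assay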
Description: SANGER: Inhibition of human AN3-CA cell growth in a cell viability assay.

[18] = system: VMRC-RCZ;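 further: growth inhibition measured with a cell viability assay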
Description: SANGER: Inhibition of human VMRC-RCZ cell growth in a cell viability assay.

[19] = system: C3A;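 further: growth inhibition of C3A human cells, quantified with a cell viability readout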
Description: SANGER: Inhibition of human C3A cell growth in a cell viability assay.

[20] = system: HCC38;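 further: cell viability assay on the human HCC38 cell line, with IC50 marking the concentration that inhibits cell growth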
Description: SANGER: Inhibition of human HCC38 cell growth in a cell viability assay.

[21] = system: SNU-423
Description: SANGER: Inhibition of human SNU-423 cell growth in a cell viability assay.

[22] = system: HN
Description: SANGER: Inhibition of human HN cell growth in a cell viability assay.

[23] = system: CAL-27;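 further: Viability-based readout, IC50 reflecting inhibition of CAL-27 cell growth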
Description: SANGER: Inhibition of human CAL-27 cell growth in a cell viability assay.

[24] = system: MC-IXC;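 further: growth inhibition of MC-IXC cells, read out with a cell viability assay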
Description: SANGER: Inhibition of human MC-IXC cell growth in a cell viability assay.

[25] = system: LCLC-97TM1;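 further: cell viability assay measuring growth inhibition of human LCLC-97TM1 cells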
Description: SANGER: Inhibition of human LCLC-97TM1 cell growth in a cell viability assay.

[26] = system: KYSE-150 cell line;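 further: growth inhibition of human KYSE-150 cells, read out with a cell viability assay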
Description: SANGER: Inhibition of human KYSE-150 cell growth in a cell viability assay.

[27] = system: Hs-578T
Description: SANGER: Inhibition of human Hs-578-T cell growth in a cell viability assay.

[28] = system: D-247MG
Description: SANGER: Inhibition of human D-247MG cell growth in a cell viability assay.

[29] = system: CAMA-1;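 further: growth inhibition of CAMA-1 cells, read out with a cell viability assay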
Description: SANGER: Inhibition of human CAMA-1 cell growth in a cell viability assay.

[30] = system: TCC-SUP;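 further: growth inhibition of TCC-SUP cells, read out with a cell viability assay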
Description: SANGER: Inhibition of human TCCSUP cell growth in a cell viability assay.

[31] = system: HOP-92;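 further: cell viability readout, with IC50 reflecting inhibition of HOP-92 cell growth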
Description: SANGER: Inhibition of human HOP-92 cell growth in a cell viability assay.

[32] = system: NCI-H2009;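 further: cell viability assay measuring inhibition of NCI-H2009 cell growth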
Description: SANGER: Inhibition of human NCI-H2009 cell growth in a cell viability assay.

[33] = system: NCI-H460;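 further: cell viability assay scoring growth inhibition of human NCI-H460 cells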
Description: SANGER: Inhibition of human NCI-H460 cell growth in a cell viability assay.

[34] = system: RMG-I;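 further: growth inhibition of human RMG-I cells, read out with a cell viability assay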
Description: SANGER: Inhibition of human RMG-I cell growth in a cell viability assay.

[35] = system: OVCAR-8;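 further: growth inhibition of human OVCAR-8 cells, read out by a cell viability assay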
Description: SANGER: Inhibition of human OVCAR-8 cell growth in a cell viability assay.

[36] = system: NUGC-3;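 further: growth inhibition of human NUGC-3 cells, read out with a cell viability assay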
Description: SANGER: Inhibition of human NUGC-3 cell growth in a cell viability assay.

[37] = system: HMV-2 cell line;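 further: growth inhibition of HMV-II cells, read out with a cell viability assay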
Description: SANGER: Inhibition of human HMV-II cell growth in a cell viability assay.

[38] = system: Ca-Ski;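 further: cell viability assay measuring inhibition of Ca-Ski cell growth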
Description: SANGER: Inhibition of human Ca-Ski cell growth in a cell viability assay.

[39] = system: SW1783;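 further: cell growth inhibition measured with a viability assay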
Description: SANGER: Inhibition of human SW1783 cell growth in a cell viability assay.

[40] = system: MOLT-13;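 further: IC50 for suppression of MOLT-13 cell growth, read out with a cell viability assay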
Description: SANGER: Inhibition of human MOLT-13 cell growth in a cell viability assay.

[41] = system: T47D;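 further: growth inhibition of human T47D cells, measured with a cell viability assay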
Description: SANGER: Inhibition of human T47D cell growth in a cell viability assay.

[42] = system: Kasumi 1;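 further: growth inhibition of human Kasumi-1 cells, read out by a cell viability assay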
Description: SANGER: Inhibition of human KASUMI-1 cell growth in a cell viability assay.

[43] = system: YH-13;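 further: cell viability readout of growth suppression in the human YH-13 cell line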
Description: SANGER: Inhibition of human YH-13 cell growth in a cell viability assay.

[44] = system: U-251;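 further: growth inhibition of human U-251 cells, read out through a cell viability assay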
Description: SANGER: Inhibition of human U251 cell growth in a cell viability assay.

[45] = system: CAL-54;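 further: growth inhibition of CAL-54 cells, read out by a viability measurement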
Description: SANGER: Inhibition of human CAL-54 cell growth in a cell viability assay.

[46] = system: SW756;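 further: growth inhibition of human SW756 cells, read out with a cell viability assay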
Description: SANGER: Inhibition of human SW756 cell growth in a cell viability assay.

C[C@]12O[C@H](C[C@]1(O)CO)n1c3ccccc3c3c4c(c5c6ccccc6n2c5c31)CNC4=O [LESTAURTINIB]
pIC50 [1]: 6.35
pIC50 [2]: 6.14
pIC50 [3]: 6.32
pIC50 [4]: < 5.70
pIC50 [5]: < 5.70
pIC50 [6]: 5.93
pIC50 [7]: 6.82
pIC50 [8]: 6.49
pIC50 [9]: 6.86
pIC50 [10]: 5.96
pIC50 [11]: 6.81
pIC50 [12]: 6.49
pIC50 [13]: 6.22
pIC50 [14]: 5.72
pIC50 [15]: 6.85
pIC50 [16]: < 5.70
pIC50 [17]: 5.90
pIC50 [18]: 7.08
pIC50 [19]: < 5.70
pIC50 [20]: < 5.70
pIC50 [21]: 6.14
pIC50 [22]: 6.74
pIC50 [23]: 6.36
pIC50 [24]: 7.87
pIC50 [25]: 6.37
pIC50 [26]: 6.19
pIC50 [27]: 6.00
pIC50 [28]: 6.28
pIC50 [29]: 5.98
pIC50 [30]: 5.73
pIC50 [31]: 6.04
pIC50 [32]: 5.91
pIC50 [33]: 5.93
pIC50 [34]: < 5.70
pIC50 [35]: 6.12
pIC50 [36]: < 5.70
pIC50 [37]: 7.25
pIC50 [38]: < 5.70
pIC50 [39]: 5.80
pIC50 [40]: 6.39
pIC50 [41]: < 5.70
pIC50 [42]: 7.72
pIC50 [43]: 6.87
pIC50 [44]: < 5.70
pIC50 [45]: 6.75
pIC50 [46]: 6.20

CC[C@]1(O)C[C@@H]2CN(CCc3c([nH]c4ccccc34)[C@@](C(=O)OC)(c3cc4c(cc3OC)N(C)[C@H]3[C@@](O)(C(=O)OC)[C@H](OC(C)=O)[C@]5(CC)C=CCN6CC[C@]43[C@@H]65)C2)C1 [VINBLASTINE]
pIC50 [1]: 7.85
pIC50 [2]: 8.21
pIC50 [3]: 8.29
pIC50 [4]: < 7.00
pIC50 [5]: < 7.00
pIC50 [6]: 7.58
pIC50 [7]: 8.28
pIC50 [8]: 8.26
pIC50 [9]: 8.44
pIC50 [10]: 8.18
pIC50 [11]: 7.97
pIC50 [12]: 8.63
pIC50 [13]: 8.32
pIC50 [14]: 7.23
pIC50 [15]: 8.09
pIC50 [16]: 8.29
pIC50 [17]: 8.01
pIC50 [18]: 7.72
pIC50 [19]: < 7.00
pIC50 [20]: 7.23
pIC50 [21]: 7.71
pIC50 [22]: 8.38
pIC50 [23]: 8.68
pIC50 [24]: 8.53
pIC50 [25]: 8.26
pIC50 [26]: 7.33
pIC50 [27]: 7.76
pIC50 [28]: 8.16
pIC50 [29]: 7.49
pIC50 [30]: 7.63
pIC50 [31]: 7.59
pIC50 [32]: 7.27
pIC50 [33]: 7.33
pIC50 [34]: < 7.00
pIC50 [35]: 8.18
pIC50 [36]: 8.46
pIC50 [37]: 8.41
pIC50 [38]: 8.33
pIC50 [39]: 7.07
pIC50 [40]: 8.25
pIC50 [41]: 8.11
pIC50 [42]: 8.09
pIC50 [43]: 8.43
pIC50 [44]: 8.30
pIC50 [45]: 7.22
pIC50 [46]: 7.83
